Assay results taken from US6699887B2, “Anti-HIV pyrazole derivatives” (Hoffmann-La Roche Inc., priority 2000, dated 2004).

How the values were obtained:
HXB2-strain of HIV = assay: Antiviral assay: protection of HIV-infected MT4 cells from cell death (MTT); type: cell-based; conditions: Human immunodeficiency virus 1, 120 h; MT4 cells infected with HXB2-strain of HIV, 5 days, MTT viability
Protocol: Anti-HIV antiviral activity was assessed using an adaptation of the method of Pauwels et al. {Pauwels et al., 1988, J Virol Methods 20:309-321}. The method is based on the ability of compounds to protect HIV-infected T lymphoblastoid cells (MT4 cells) from cell-death mediated by the infection. The endpoint of the assay was calculated as the concentration of compound at which the cell viability of the culture was preserved by 50% (‘50% inhibitory concentration’, IC50). The cell viability of a culture was determined by the uptake of soluble, yellow 3-[4,5-dimethylthiazol-2-yl]-2,5-diphenyltetrazolium bromide (MTT) and its reduction to a purple insoluble formazan salt. After solubilization, spectrophotometric methods were employed to measure the amount of formazan product.
MT4 cells were prepared to be in logarithmic-phase growth and a total of 2×10^6 cells infected with the HXB2-strain of HIV at a multiplicity of 0.0001 infectious units of virus per cell in a total volume of between 200-500 microliters. The cells were incubated with virus for one hour at 37° C. before removal of virus. The cells are then washed in 0.01 M phosphate buffered saline, pH 7.2 before being resuspensed in culture medium for incubation in culture with serial dilutions of test compound. The culture medium used was RPMI 1640 without phenol red, supplemented with penicillin, streptomycin, L-glutamine and 10% fetal calf serum (GM10).
Test compounds were prepared as 2 mM solutions in dimethyl sulphoxide (DMSO). Four replicate, serial 2-fold dilutions in GM10 were then prepared and 50 microliters amounts placed in 96-well plates over a final nanomolar concentration range of 625-1.22. Fifty microliters GM10 and 3.5×10^4 infected cells were then added to each well. Control cultures containing no cells (blank), uninfected cells (100% viability; 4 replicates) and infected cells without compound (total virus-mediated cell death; 4 replicates) were also prepared. The cultures were then incubated at 37° C. in a humidified atmosphere of 5% CO2 in air for 5 days.
A fresh solution of 5 mg/mL MTT was prepared in 0.01 M phosphate buffered saline, pH 7.2 and 20 microliters added to each culture. The cultures were further incubated as before for 2 hours. They were then mixed by pipetting up and down and 170 microliters of Triton X-100 in acidified isopropanol (10% v/v Triton X-100 in 1:250 mixture of concentrated HCl in isopropanol). When the formazan deposit was fully solubilized by further mixing, the absorbance (OD) of the cultures was measured at 540 nm and 690 nm wavelength (690 nm readings were used as blanks for artefacts between wells). The percent protection for each treated culture was then calculated from the equation: [formula]
The IC50 can be obtained from graph plots of percent protection versus log10 drug concentration.

HIV-1 RT = HIV-1 RT (Human immunodeficiency virus type 1 group M subtype B, UniProt P04585); assay: HIV-1 Reverse Transcriptase Assay: Inhibitor IC50 Determination; type: biochemical; conditions: purified recombinant enzyme, poly(rA)/oligo(dT)16 template-primer, 37° C. 30 min
Protocol: Assay Method: HIV-1 Reverse Transcriptase Assay: Inhibitor IC50 Determination:
HIV-1 RT assay was carried out in 96-well Millipore filtermat NOB50 plates using purified recombinant enzyme and a poly(rA)/oligo(dT)16 template-primer in a total volume of 50 μL. The assay constituents were 50 mM Tris/HCl, 50 mM NaCl, 1 mM EDTA, 6 mM MgCl2, 5 μM dTTP, 0.1 μCi [^3H] dTTP, 5 μg/ml poly (rA) pre annealed to 2.5 μg/ml oligo (dT)16 and a range of inhibitor concentrations in a final concentration of 10% DMSO. Reactions were initiated by adding 5 nM HIV-1 RT and after incubation at 37° C. for 30 min, they were stopped by the addition of 50 μl ice cold 20%TCA and allowed to precipitate at 4° C. for 30 min. The precipitates were collected by applying vacuum to the plate and sequentially washing with 2×200 μl of 10% TCA and 2×200 μl 70% ethanol. Finally the plates were dried and radioactivity counted in a Wallac Microbeta 1450 after the addition of 15 μl scintillation fluid per well. IC50's were calculated by plotting % inhibition versus log10 inhibitor concentrations.

Cc1cc(C)cc(Sc2c(Cc3ccccn3)c(C)nn2C(C)C)c1
IC50 (HXB2-strain of HIV): 64 nM | IC50 (HIV-1 RT): 950 nM

Cc1nn(-c2ccccc2)c(Sc2cc(Cl)cc(Cl)c2)c1CCc1ccccc1
IC50 (HXB2-strain of HIV): 592 nM | IC50 (HIV-1 RT): 3420 nM

Cc1nn(C(C)C)c(Sc2cc(Cl)cc(Cl)c2)c1Cc1ccccn1
IC50 (HXB2-strain of HIV): 75 nM | IC50 (HIV-1 RT): 1070 nM

Cc1nn(C(C)C)c(Sc2cc(Cl)cc(Cl)c2)c1Cc1ccncc1
IC50 (HXB2-strain of HIV): 2.7 nM | IC50 (HIV-1 RT): 76 nM

Cc1nn(C(C)C)c(Sc2cc(Cl)cc(Cl)c2)c1Cc1ccnc(Cl)c1
IC50 (HXB2-strain of HIV): 15 nM | IC50 (HIV-1 RT): 109 nM

Cc1nn(C(C)C)c(Sc2cc(Cl)cc(Cl)c2)c1Cc1ccccc1
IC50 (HXB2-strain of HIV): 24 nM | IC50 (HIV-1 RT): 270 nM

Cc1nn(C(C)C)c(Sc2cc(Cl)cc(Cl)c2)c1Cc1cccnc1
IC50 (HXB2-strain of HIV): 14.6 nM | IC50 (HIV-1 RT): 572 nM

Cc1nn(C(C)C)c(Sc2cc(Cl)cc(Cl)c2)c1COc1cncc(Cl)c1
IC50 (HXB2-strain of HIV): 203 nM | IC50 (HIV-1 RT): 650 nM

Cc1nn(-c2ccccc2)c(Sc2cc(Cl)cc(Cl)c2)c1Cc1ccncc1
IC50 (HXB2-strain of HIV): 36 nM | IC50 (HIV-1 RT): 105 nM

Cc1nn(-c2ccccc2)c(Sc2cc(Cl)cc(Cl)c2)c1Cc1ccccc1
IC50 (HXB2-strain of HIV): 403 nM | IC50 (HIV-1 RT): 2060 nM

Cc1nn(C(C)C)c(Sc2cc(Cl)cc(Cl)c2)c1Cc1cnccn1
IC50 (HXB2-strain of HIV): 13.9 nM | IC50 (HIV-1 RT): 270 nM

Cc1nn(C(C)C)c(Sc2cc(Cl)cc(Cl)c2)c1Cc1ccncc1F
IC50 (HXB2-strain of HIV): 11.1 nM | IC50 (HIV-1 RT): 373 nM

Cc1nn(C(C)C)c(Sc2cccc(Br)c2)c1Cc1ccncc1Cl
IC50 (HIV-1 RT): 5200 nM

CCn1nc(C)c(Cc2ccncc2)c1Sc1cc(Cl)cc(Cl)c1
IC50 (HXB2-strain of HIV): 9 nM | IC50 (HIV-1 RT): 84 nM

Cc1nn(C(C)C)c(Sc2cc(Cl)cc(Cl)c2)c1Cc1ccncn1
IC50 (HXB2-strain of HIV): 13.5 nM | IC50 (HIV-1 RT): 456 nM

Cc1cccc(Sc2c(Cc3ccncc3Cl)c(C)nn2C(C)C)c1
IC50 (HIV-1 RT): 1080 nM

Cc1nn(C(C)C)c(Sc2cc(Cl)cc(Cl)c2)c1COCc1ccncc1
IC50 (HXB2-strain of HIV): 3.6 nM | IC50 (HIV-1 RT): 112 nM

CCn1nc(COC)c(Cc2ccccc2)c1Sc1cc(Cl)cc(Cl)c1
IC50 (HXB2-strain of HIV): 453 nM | IC50 (HIV-1 RT): 8040 nM

COc1cc(Cl)cc(Sc2c(Cc3ccnc(OC)c3)c(C)nn2C(C)C)c1
IC50 (HXB2-strain of HIV): 31.5 nM | IC50 (HIV-1 RT): 298 nM

Cc1nn(C(C)C)c(Sc2cc(Cl)cc(Cl)c2)c1COc1cccnc1
IC50 (HXB2-strain of HIV): 110 nM | IC50 (HIV-1 RT): 313 nM

Cc1nn(C(C)C)c(Sc2cccc(Br)c2)c1Cc1ccncc1F
IC50 (HXB2-strain of HIV): 19 nM | IC50 (HIV-1 RT): 463 nM

Cc1nn(C(C)C)c(Sc2cc(Cl)cc(Cl)c2)c1Cc1ccncc1Cl
IC50 (HXB2-strain of HIV): 51.7 nM | IC50 (HIV-1 RT): 177 nM

Cc1nn(C(C)C)c(Sc2cc(Cl)cc(Cl)c2)c1COCc1ccccc1
IC50 (HXB2-strain of HIV): 100 nM | IC50 (HIV-1 RT): 349 nM

Cc1cccc(Sc2c(Cc3ccncc3F)c(C)nn2C(C)C)c1
IC50 (HXB2-strain of HIV): 19 nM | IC50 (HIV-1 RT): 480 nM

Cc1nn(C(C)C)c(Sc2cc(Cl)cc(Cl)c2)c1COc1ccncc1
IC50 (HXB2-strain of HIV): 20 nM | IC50 (HIV-1 RT): 252 nM

Cc1cc(C)cc(Sc2c(Cc3ccncc3Cl)c(C)nn2C(C)C)c1
IC50 (HIV-1 RT): 607 nM

Cc1cc(Cc2c(C)nn(C(C)C)c2Sc2cc(Cl)cc(Cl)c2)cc(Cl)n1
IC50 (HXB2-strain of HIV): 28 nM | IC50 (HIV-1 RT): 880 nM

CCn1nc(C)c(Cc2cncc(Br)c2)c1Sc1cc(Cl)cc(Cl)c1
IC50 (HXB2-strain of HIV): 124 nM | IC50 (HIV-1 RT): 398 nM

Cc1nn(C(C)C)c(Sc2cc(Cl)cc(Cl)c2)c1Cc1ccc(C#N)cc1
IC50 (HXB2-strain of HIV): 11.9 nM | IC50 (HIV-1 RT): 176 nM

Cc1nn(C(C)C)c(Sc2cc(Cl)cc(Cl)c2)c1CSc1ccncc1
IC50 (HXB2-strain of HIV): 34.1 nM | IC50 (HIV-1 RT): 292 nM

Cc1cc(C)cc(Sc2c(Cc3ccncc3F)c(C)nn2C(C)C)c1
IC50 (HXB2-strain of HIV): 8.1 nM | IC50 (HIV-1 RT): 90 nM
